Test results from publication PMC9705902, “Enzymatic Characterization and Comparison of Two Steroid Hydroxylases CYP154C3-1 and CYP154C3-2 from Streptomyces Species” (Journal of Microbiology and Biotechnology, 2021).

Legend:
CYP154C3-1 = biological target: T1, CYP154C3-1 (Streptomyces sp., UniProt A0A2H4WK73); experiment: type I spectral shift titration (A390-A420), tight-binding quadratic fit; parameters: species or system Streptomyces sp. W2061
T1 construct: full-length CDS 1,239 bp (412 residues), N-terminal Trx-His-S-enterokinase fusion from pET32a(+) kept, E. coli C41(DE3), ~65 kDa on SDS-PAGE (~45 kDa theoretical without fusion), heme protein
From the text: type I spectral shift titration (A390-A420), tight-binding quadratic fit on CYP154C3-1

CYP154C3-2 = biological target: T2, CYP154C3-2 (Streptomyces sp., UniProt A0A7S9IUH5); experiment: as above
T2 construct: full-length CDS 1,254 bp (417 residues), N-terminal Trx-His-S-enterokinase fusion from pET32a(+) kept, E. coli C41(DE3), ~65 kDa on SDS-PAGE (~45 kDa theoretical without fusion), heme protein
T2 sequence (A0A7S9IUH5 1-417): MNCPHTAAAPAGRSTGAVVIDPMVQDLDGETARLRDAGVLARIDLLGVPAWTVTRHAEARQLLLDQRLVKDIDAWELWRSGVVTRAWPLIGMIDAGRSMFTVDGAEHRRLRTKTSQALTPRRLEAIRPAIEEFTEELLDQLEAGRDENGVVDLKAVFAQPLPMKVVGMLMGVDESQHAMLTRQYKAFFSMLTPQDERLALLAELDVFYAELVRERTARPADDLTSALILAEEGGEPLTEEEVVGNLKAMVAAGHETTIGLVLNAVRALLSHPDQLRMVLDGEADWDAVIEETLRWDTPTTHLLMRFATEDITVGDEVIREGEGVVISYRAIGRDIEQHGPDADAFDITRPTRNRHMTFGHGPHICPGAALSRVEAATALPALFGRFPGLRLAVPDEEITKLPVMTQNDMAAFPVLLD
From the text: type I spectral shift titration (A390-A420), tight-binding quadratic fit on CYP154C3-2

T1 sequence (A0A2H4WK73 1-414): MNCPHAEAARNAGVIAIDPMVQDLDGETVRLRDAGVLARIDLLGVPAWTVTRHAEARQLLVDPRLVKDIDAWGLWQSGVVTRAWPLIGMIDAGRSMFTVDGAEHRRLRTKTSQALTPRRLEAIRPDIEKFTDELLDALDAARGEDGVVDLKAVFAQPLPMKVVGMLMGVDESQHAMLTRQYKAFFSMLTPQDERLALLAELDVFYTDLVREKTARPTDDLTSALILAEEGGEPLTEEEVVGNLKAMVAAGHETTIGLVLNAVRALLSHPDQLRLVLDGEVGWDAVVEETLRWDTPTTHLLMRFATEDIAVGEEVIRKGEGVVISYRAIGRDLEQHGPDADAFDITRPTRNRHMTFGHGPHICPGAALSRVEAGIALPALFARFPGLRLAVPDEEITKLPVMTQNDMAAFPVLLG

Row | SMILES | Kd (CYP154C3-1) [µM] | Kd (CYP154C3-2) [µM]
1 | C[C@]12CCC(=O)C=C1CC[C@@H]1[C@@H]2C(=O)C[C@]2(C)C(=O)CC[C@@H]12 [compound 1, Adrenosterone] | 0.318 ± 0.026 | 0.443 ± 0.035
2 | C[C@]12CCC(=O)C=C1CC[C@@H]1[C@@H]2CC[C@]2(C)C(=O)CC[C@@H]12 [compound 2, Androstenedione] | 0.351 ± 0.033 | 0.475 ± 0.054
3 | C[C@]12C[C@H](O)[C@H]3[C@@H](CCC4=CC(=O)CC[C@@]43C)[C@@H]1CC[C@@H]2C(=O)CO [compound 3, Corticosterone] | 14.1 ± 2.57 | 44.5 ± 3.97
4 | C[C@]12CC[C@H]3[C@@H](CCC4=CC(=O)CC[C@@H]43)[C@@H]1CC[C@@H]2O [compound 6, Nandrolone] | 13.5 ± 2.62 | 6.58 ± 0.84
5 | CC(=O)[C@H]1CC[C@H]2[C@@H]3CCC4=CC(=O)CC[C@]4(C)[C@H]3CC[C@]12C [compound 9, Progesterone] | – | 0.409 ± 0.037
